For this test, the system named is Pyrenophora teres. In words: In vivo test on Pyrenophora teres (preventive spray on barley plants). The note with it: barley plants (Express variety), grading 12 days after contamination, in comparison with control plants. The protocol:
The active ingredient tested is prepared by potter homogenisation in a concentrated suspension type formulation at 100 g/l. This suspension is then diluted with water to obtain the desired active material concentration.
Barley plants (Express variety) in starter cups, sown on a 50/50 peat soil-pozzolana substrate and grown at 12° C., are treated at the 1-leaf stage (10 cm tall) by spraying with the aqueous suspension described above. Plants, used as controls, are treated with an aqueous solution not containing the active material. After 24 hours, the plants are contaminated by spraying them with an aqueous suspension of Pyrenophora teres spores (12,000 spores per ml). The spores are collected from a 12-day-old culture. The contaminated barley plants are incubated for 24 hours at about 20° C. and at 100% relative humidity, and then for 12 days at 80% relative humidity.
Grading is carried out 12 days after the contamination, in comparison with the control plants.

This passage reports protection results from US20090054235A1, “Benzoheterocyclylethylbenzamide derivatives” (priority 2005, published 2009).

With `O=C(NCCc1c[nH]c2ccc(Br)cc12)c1ccccc1C(F)F` [N.[2-(5-bromo-1H-indol-3-yl)ethyl]-2-(difluoromethyl)benzamide], the protection entry (dose of 500 ppm) is “no protection at all”.

Take `O=C(NCCc1c[nH]c2ccc(Br)cc12)c1ccccc1C(F)(F)F` [N.[2-(5-bromo-1H-indol-3-yl)ethyl]-2-(trifluoromethyl)benzamide]: where the note is “dose of 330 ppm”, the protection entry was “no protection at all”.

For the compound `O=C(NCCc1c[nH]c2ccc(Br)cc12)c1ccccc1Cl` [N.[2-(5-bromo-1H-indol-3-yl)ethyl]-2-chlorobenzamide], where the note is “dose of 500 ppm”, the protection result is on record as “no protection at all”.

As for `O=C(NCCc1c[nH]c2ccc(Br)cc12)c1ccccc1I` [N.[2-(5-bromo-1H-indol-3-yl)ethyl]-2-iodobenzamide], the protection result (dose of 500 ppm) is reported as “no protection at all”.
